{"source": "patent US11357752B2", "about": "“Carolacton and derivatives thereof for use in the treatment of cell proliferation disorders” (Helmholtz-Zentrum für Infektionsforschung GmbH, priority 2017, dated 2022)", "key": {"hsMTHFD2": {"molecular_target": "T1, hsMTHFD2 (Homo sapiens, UniProt P13995)", "T1 construct": "His-tag (vector pHis-TEV); made in house; host or cells: E. coli BL21 (DE3)", "T1 sequence (P13995 36-350)": "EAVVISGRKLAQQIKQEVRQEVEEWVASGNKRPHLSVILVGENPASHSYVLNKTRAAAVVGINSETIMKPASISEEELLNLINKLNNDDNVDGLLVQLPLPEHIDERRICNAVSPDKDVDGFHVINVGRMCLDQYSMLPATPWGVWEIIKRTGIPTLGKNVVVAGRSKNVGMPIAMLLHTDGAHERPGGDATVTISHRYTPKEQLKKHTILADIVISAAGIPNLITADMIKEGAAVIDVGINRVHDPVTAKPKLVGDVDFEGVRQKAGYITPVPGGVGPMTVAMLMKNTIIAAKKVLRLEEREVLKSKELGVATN", "assay": "Surface plasmon resonance assay", "format": "binding", "conditions": "read-out: KD (SPR)", "procedure": "All surface plasmon resonance (SPR) experiments described in this study were performed on a Biacore X100 system. Different FoIDs with or without His-tag were coupled on CM5 sensor chips (GE Healthcare) by the amine coupling method using a kit from GE Healthcare Life Sciences (Freiburg, Germany). A pH scouting process was performed before protein immobilization to test the most appropriate buffer and the protein concentration for protein coupling. Finally, 20 μg/mL of ecFoID in 10 mM maleate buffer (pH 6.8), 30 μg/mL of ecFoID Q98H in 10 mM maleate buffer (pH 6.3), 40 μg/mL of ecFoID K54N in 10 mM maleate buffer (pH 5.8), 20 μg/mL of spFoID in 10 mM maleate buffer (pH 6.0) and 15 μg/mL of MTHFD2 (His-tag cleaved) in 10 mM maleate buffer (pH 6.8) were used for coupling. In the protein immobilization procedure, the contact time was calculated based on the pH scouting results to achieve -3000-5000 relative resonance units (RU). The buffer used in the SPR assays was 1×HBS-P buffer (10 mM HEPES pH 7.4, 150 mM NaCl, 0.05% Tween 20). The 1 mM stock solution of carolacton was prepared in 1×HBS-P buffer and diluted to different concentration ranges by two-fold serial dilution. In the SPR assay, the association time was 180 s and the dissociation time was 600 s. Data analysis was performed using the Biacore evaluation software. […]"}, "ecFoID": {"molecular_target": "T2, ecFoID (Escherichia coli, UniProt P24186)", "T2 construct": "His-tag (vector pHis-TEV); made in house; host or cells: E. coli BL21 (DE3)", "assay": "FoID dehydrogenase (DH) enzyme assay", "format": "biochemical, E. coli", "conditions": "for Ki: carolacton inhibition on DH activity, ecFoID", "procedure": "(6R,S)-5,10-Methylene-5,6,7,8-tetrahydrofolic acid ((6R,S)-5,10-CH2-THF), calcium salt and (6R,S)-5,10-Methenyl-5,6,7,8-tetrahydrofolic acid ((6R,S)-5,10-CH=THF) chloride were purchased from Schircks Laboratories (Bauma, Switzerland) and were used as substrates for FoID dehydrogenase and cyclohydrolase enzyme assays, respectively. Only the R-isomer, which accounts for 50% of (6R,S)-5,10-CH2-THF and (6R,S)-5,10-CH=THF, respectively, is used by the enzyme. (6R,S)-5,10-CH2-THF was dissolved in N2-spargeled basic buffer (50 mM Tris-HCl (pH 8.0), 100 mM β-mercaptoethanol) as described by Sah and Varshney, 2015a (6R,S)-5,10-CH=THF was first dissolved in DMSO as a 100 mM stock solution.\nBecause FoID is a bifunctional enzyme, dehydrogenase and cyclohydrolase activities were determined for FoID enzyme kinetics, respectively. The dehydrogenase activity of FoID was assayed for its substrate 5,10-CH2-THF and cofactor NADP+ (in the case of MTHFD2, NAD+ was used as cofactor) based on monitoring the formation of 5,10-CH=THF while the cyclohydrolase activity of FoID was determined for its substrate 5,10-CH=THF by monitoring the hydrolysis of 5,10-CH2-THF. The enzyme kinetics for the dehydrogenase activity of all FoIDs except hsMTHFD1_DC were determined at 30° C. in 50 mM Tris-HCl (pH 7.5), 30 mM β-mercaptoethanol. The hsMTHFD1_DC dehydrogenase activity was measured in 25 mM MOPS (pH 7.3), 30 mM β-mercaptoethanol at 30° C. To measure the enzyme kinetics constants for 5,10-CH2-THF, for example in the case of ecFoID, the NADP concentration was fixed at 1 mM and the concentration of 5,10-CH2-THF varied from 5 μM to 1,500 μM (R-isomer). Similarly, to measure the kinetic constants of ecFoID for NADP+, the concentration of 5,10-CH2-THF (R-isomer) was fixed at 1 mM and the concentration of NADP+ varied from 10 μM to 1,500 μM. For different FoIDs, the varied concentration range of substrates could be different. The 50 μL reactions of dehydrogenase assays were initiated by adding appropriate amounts enzyme (4 nM ecFoID, 4 nM spFoID, 15 nM hsMTHFD1_DC, 20 nM hsMTHFD2, 20 nM G8S, 20 nM Q98H, 10 nM K54N, 200 nM ΔK54R55 in the corresponding assays) and terminated with 50 μL 1 M HCl after 2 min incubation at 30° C. To monitor the formation of 5,10-CH=THF, the absorbance of the reaction mixture was monitored at 350 nm in micro UV cuvettes (BRAND, Essex, Connecticut, USA). The concentration of 5,10-CH=THF produced in the reaction was determined using an extinction co-efficient of 0.0249 μM-1 cm-1. Cyclohydrolase activity for each FoID was assayed in the same buffer as dehydrogenase activity at 30° C. but for 30 s. The concentration of FoID used in each assay was 5 nM of ecFoID, spFoID and hsMTHFD1_DC, respectively, and 2 nM of hsMTHFD2. The consumption of 5,10-CH=THF was measured by recording the absorbance of the reactions at 355 nm using the TECAN Infinite 200 PRO equipped with a monochromator. To measure the enzyme kinetic constants, different concentrations of 5,10-CH=THF (varied from […]) were used in […] reaction mixtures. The inhibition constants (Ki) of carolacton on FoID were determined by measuring the apparent Km values when adding certain amounts of carolacton to the enzyme reactions. For ecFoID, 10 nM carolacton was added in the dehydrogenase assay and 50 nM carolacton was used in the cyclohydrolase assay. For spFoID, 25 nM carolacton was added in both dehydrogenase assay and cyclohydrolase assay. For hsMTHFD1_DC, 30 nM carolacton was added in the dehydrogenase assay and 10 nM in the cyclohydrolase assay. […] To compare the inhibition effects of carolacton between the different FoIDs, the half maximal inhibitory concentration (IC50) of carolacton on the same amount of enzyme was determined for FoIDs involved in this study. The enzyme concentration used to determine dehydrogenase activity IC50 was 10 nM, and the enzyme used for cyclohydrolase IC50 measurements was 5 nM. All enzyme kinetics measurements were performed as independent triplicates. […]"}}, "note": "Values joined by “and” are separate entries in the source; they are usually repeats but may differ in a detail not shown here. Equal entries are not always repeated.", "data": [{"molecule": "CO[C@H](CC(=O)O)[C@@H](C)C(=O)[C@H](C)/C=C(\\C)[C@H]1OC(=O)[C@H](O)[C@H](O)/C=C/[C@H](C)CCC[C@@H]1C", "note": "[Carolacton, carolacton]", "values": [{"measurement": "Kd", "setting": "hsMTHFD2", "result": 19, "unit": "nM"}, {"measurement": "IC50", "setting": "ecFoID", "result": 15.5, "unit": "nM"}, {"measurement": "Ki", "setting": "ecFoID; Ki (5,10-CH2—THF), vs 5,10-CH2-THF", "result": "21 nM and 21.3 nM"}, {"measurement": "Ki", "setting": "ecFoID; Ki (NADP^+), vs cofactor NADP+", "result": "11 nM and 10.9 nM"}]}]}
